Assays:
Type in all cases: in vivo, Male Wistar strain rats
[1] = tested on: hypoxemia model animals (acetic acid); test: Effect on partial pressure of gases in arterial blood, intravenous, Method B (acetic acid induced hypoxemia); conditions: 2.0% acetic acid, intravenous 0.1 mg/kg/min, 10 min, after minus before administration
Description: (§1) Example 75: Effect on Partial Pressure Value of Gases in Arterial Blood (Intravenous Injection System)
Male Wistar strain rats (body weight about 300 g) were anesthetized with halothane inhalant, and then 2.0% acetic acid was intratrachealy injected at 0.6 ml/kg to induce a respiratory insufficiency. The animals were intraperitonealy anesthetized with urethane-α-chloralose, and a cannula was inserted into the femoral artery. After the hypoxemic state (PaO2 : 60-70 mmHg) was observed a compound in accordance with the present invention (test substance) was continuously injected into these hypoxemia model animals intravenously (0.1 mg/kg/min, 10 min), and then a partial pressure value of gases (PaO2, PaCO2) in arterial blood was immediately determined.

[2] = tested on: hypoxemia state (acetic acid); test: Effect on partial pressure of gases in arterial blood, oral administration (acetic acid induced hypoxemia); conditions: 2.0% acetic acid, 60 min after administration
Description: Example 76: Effect on Partial Pressure Value of Gases in Arterial Blood (Oral Administration System)
Male Wistar strain rats (body weight about 250 g) fasted overnight were anesthetized with halothane inhalant, and then a cannula was inserted into the femoral artery. After the animals recovered from the anesthesia, they were again anesthetized with halothane inhalant, and then 2.0% acetic acid was intratrachealy injected at 0.8 ml/kg to induce a hypoxemia state. After the hypoxemic state was observed over about 60 min., a compound in accordance with the present invention (test substance) was orally administered to the animals. On 60 min. after the administration, the partial pressure value of gases (PaO2, PaCO2) in arterial blood was determined.

[3] = tested on: hypoxemia model animals (carbon powder); test: Effect on partial pressure of gases in arterial blood, intravenous, Method A (carbon powder induced hypoxemia); conditions: intravenous 0.1 mg/kg/min, 10 min, after minus before administration
Description: as §1
Male Wistar strain rats (body weight about 300 g) were anesthetized intra-peritonealy with urethane, and a cannula was inserted into the respiratory tract and the femoral artery, respectively. A suspension (30-100 μm, 10 mg/ml) of carbon powder in a corn oil was intratrachealy injected to induce a hypoxemia state (PaO2 : 50-60 mmHg). A compound in the present invention was continuously injected into these hypoxemia model animals intravenously (0.1 mg/kg/min, 10 min), and then a partial pressure value of gases (PaO2, PaCO2) in arterial blood was immediately determined.

| Structure (SMILES) | PaCO2 Decreasing Activity ΔPaCO2 [1] | PaO2 Increasing Activity ΔPaO2 [1] | PaCO2 Decreasing Activity ΔPaCO2 [2] | PaO2 Increasing Activity ΔPaO2 [2] | PaCO2 Decreasing Activity ΔPaCO2 [3] | PaO2 Increasing Activity ΔPaO2 [3] |
| --- | --- | --- | --- | --- | --- | --- |
| C=CCNc1nc2c(c(N3CCc4ccccc4C3)n1)CCCN2CC=C [Compound 214] | +2.2 mmHg | +9.8 mmHg |  |  |  |  |
| C=CCNc1nc(SCCc2ccccc2)c2c(n1)N(CC=C)CCC2 [Compound 204] | +2.2 mmHg | +15.0 mmHg |  |  |  |  |
| C=CCNc1nc(NCC=C)c2c(n1)N(CC=C)CCC2 [Compound 168] | -12.2 mmHg | +14.4 mmHg |  |  |  |  |
| C=CCNc1nc(N2CC=CCC2)c2c(n1)N(CC=C)CCC2 [Compound 213] | -2.9 mmHg | +10.3 mmHg |  |  |  |  |
| C=CCNc1nc(NCC=C)c2c(n1)N(C)CCC2 [Compound 121] | -1.2 mmHg | +15.9 mmHg | + (-3--6 mmHg) | ++ (+6-+9 mmHg) |  |  |
| C=CCNc1nc2c(c(N3CCN(C(c4ccc(F)cc4)c4ccc(F)cc4)CC3)n1)CCCN2CC=C [Compound 159] |  |  |  |  | +0.4 mmHg | +4.8 mmHg |
| C=CCNc1nc(N(C)C)c2c(n1)N(CC=C)CCC2 [Compound 184] | -3.2 mmHg | +10.4 mmHg |  |  |  |  |
| C=CCNc1nc2c(c(N3CCCCCC3)n1)CCCN2CC=C [Compound 153] | -0.9 mmHg | +10.0 mmHg |  |  |  |  |
| C=CCNc1nc2c(c(N3CCCC3)n1)CCCN2CC=C [Compound 143] | -0.7 mmHg | +8.1 mmHg | ± (0--3 mmHg) | + (+3-+6 mmHg) |  |  |
| C=CCNc1nc(SC(C)c2ccccc2)c2c(n1)N(CC=C)CCC2 (stereo not drawn) [Compound 203] | -2.1 mmHg | +9.5 mmHg |  |  |  |  |
| C=CCNc1nc(NCCc2ccccc2)c2c(n1)N(CC=C)CCC2 [Compound 171] | -13.4 mmHg | +17.4 mmHg | ± (0--3 mmHg) | + (+3-+6 mmHg) |  |  |
| C=C(C)CNc1nc2c(c(N3CCN(C(c4ccc(F)cc4)c4ccc(F)cc4)CC3)n1)CCCN2 [Compound 112] |  |  |  |  | -2.0 mmHg | +4.6 mmHg |
| C=CCNc1nc2c(c(N3CCOCC3)n1)CCCN2CC=C [Compound 209] | -2.4 mmHg | +7.6 mmHg | + (-3--6 mmHg) | + (+3-+6 mmHg) |  |  |
| C=CCNc1nc2c(c(N3CCCCC3)n1)CCCN2CC=C [Compound 145] | -0.8 mmHg | +11.2 mmHg | ± (0--3 mmHg) | + (+3-+6 mmHg) |  |  |
| C=CCNc1nc(NCC=C)c2c(n1)N(Cc1ccccc1)CCC2 [Compound 233] | -4.0 mmHg | +8.6 mmHg |  |  |  |  |
| C=CCNc1nc(N(C)Cc2ccccc2)c2c(n1)N(CC=C)CCC2 [Compound 189] | -7.6 mmHg | +16.0 mmHg |  |  |  |  |
| C=CCNc1nc2c(c(N3CCC(c4ccccc4)CC3)n1)CCCN2CC=C [Compound 146] | +2.5 mmHg | +6.6 mmHg |  |  |  |  |
| C=CCNc1nc2c(c(N3CCN(C)CC3)n1)CCCN2CC=C [Compound 155] | +2.6 mmHg | +6.6 mmHg | + (-3--6 mmHg) | ++ (+6-+9 mmHg) |  |  |

Reference: patent US5378700A, “Fused pyrimidine derivative, process for preparation of same and pharmaceutical preparation comprising same as active ingredient” (Teijin Limited, priority 1989, dated 1995)
